Experimental data reported in patent US20250171420A1 (Monte Rosa Therapeutics, Inc., priority 2022, published 2025).
Read-outs that look alike come from different tables or passages of the source.

Experiments:
CRBN/DDB1 = CRBN/DDB1 (Homo sapiens, UniProt Q96SW2); test: HTRF binding assay (displacement of Cy5-thalidomide probe from CRBN/DDB1)
Procedure, shortened: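 HTRF displacement of Cy5-thalidomide (100 nM) from His-tagged CRBN/DDB1 (2.5 nM) with anti-His Tb cryptate in 20 mM HEPES, 20 mM NaCl, 0.2 mM TCEP, 0.2 mM EDTA, 0.005% Tween20. 10-point 1:3 series, 30 min ambient. 665/620 nm ratio fitted 4-parameter for IC50; Ki by Cheng-Prusoff from geometric-mean IC50.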

CK1α [1] = biological target: T1, CK1α (Homo sapiens, UniProt P48729+Q96SW2); test: CK1α NanoBit Assay (HiBiT-tagged CSNK1A1, HEK293 clonal lines); assay type: cell-based; settings: read-out: CK1α DC50 (μM) 24 h; HEK293 HiBiT-CSNK1A1/LgBiT cells, 24 h incubation
T1 construct: HEK293 clonal lines with CRISPR KI HiBiT tag on CSNK1A1
T1 sequence (P48729 whole entry): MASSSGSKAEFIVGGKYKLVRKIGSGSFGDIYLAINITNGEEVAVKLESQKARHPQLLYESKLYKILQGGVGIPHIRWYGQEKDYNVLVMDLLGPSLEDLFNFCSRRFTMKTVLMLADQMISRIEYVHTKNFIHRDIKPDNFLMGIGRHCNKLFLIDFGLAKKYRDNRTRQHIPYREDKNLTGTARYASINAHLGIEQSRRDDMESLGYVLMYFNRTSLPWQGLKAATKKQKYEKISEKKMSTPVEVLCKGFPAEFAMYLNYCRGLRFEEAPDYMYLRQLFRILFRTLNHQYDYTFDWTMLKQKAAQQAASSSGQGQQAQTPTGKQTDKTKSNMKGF
T1 sequence (Q96SW2 whole entry): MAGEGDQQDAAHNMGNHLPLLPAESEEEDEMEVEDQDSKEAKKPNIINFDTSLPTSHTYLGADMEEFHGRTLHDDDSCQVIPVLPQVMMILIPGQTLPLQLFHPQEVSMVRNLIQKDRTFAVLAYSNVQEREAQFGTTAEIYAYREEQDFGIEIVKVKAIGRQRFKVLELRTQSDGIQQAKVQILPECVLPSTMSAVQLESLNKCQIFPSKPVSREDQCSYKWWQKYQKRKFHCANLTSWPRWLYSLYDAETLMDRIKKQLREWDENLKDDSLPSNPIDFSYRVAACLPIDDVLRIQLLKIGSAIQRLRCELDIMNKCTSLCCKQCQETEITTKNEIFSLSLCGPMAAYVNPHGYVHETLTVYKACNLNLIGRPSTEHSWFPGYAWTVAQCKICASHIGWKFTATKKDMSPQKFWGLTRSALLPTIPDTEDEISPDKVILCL
T1 sequence (Q16531 2-1140 partner limits assumed): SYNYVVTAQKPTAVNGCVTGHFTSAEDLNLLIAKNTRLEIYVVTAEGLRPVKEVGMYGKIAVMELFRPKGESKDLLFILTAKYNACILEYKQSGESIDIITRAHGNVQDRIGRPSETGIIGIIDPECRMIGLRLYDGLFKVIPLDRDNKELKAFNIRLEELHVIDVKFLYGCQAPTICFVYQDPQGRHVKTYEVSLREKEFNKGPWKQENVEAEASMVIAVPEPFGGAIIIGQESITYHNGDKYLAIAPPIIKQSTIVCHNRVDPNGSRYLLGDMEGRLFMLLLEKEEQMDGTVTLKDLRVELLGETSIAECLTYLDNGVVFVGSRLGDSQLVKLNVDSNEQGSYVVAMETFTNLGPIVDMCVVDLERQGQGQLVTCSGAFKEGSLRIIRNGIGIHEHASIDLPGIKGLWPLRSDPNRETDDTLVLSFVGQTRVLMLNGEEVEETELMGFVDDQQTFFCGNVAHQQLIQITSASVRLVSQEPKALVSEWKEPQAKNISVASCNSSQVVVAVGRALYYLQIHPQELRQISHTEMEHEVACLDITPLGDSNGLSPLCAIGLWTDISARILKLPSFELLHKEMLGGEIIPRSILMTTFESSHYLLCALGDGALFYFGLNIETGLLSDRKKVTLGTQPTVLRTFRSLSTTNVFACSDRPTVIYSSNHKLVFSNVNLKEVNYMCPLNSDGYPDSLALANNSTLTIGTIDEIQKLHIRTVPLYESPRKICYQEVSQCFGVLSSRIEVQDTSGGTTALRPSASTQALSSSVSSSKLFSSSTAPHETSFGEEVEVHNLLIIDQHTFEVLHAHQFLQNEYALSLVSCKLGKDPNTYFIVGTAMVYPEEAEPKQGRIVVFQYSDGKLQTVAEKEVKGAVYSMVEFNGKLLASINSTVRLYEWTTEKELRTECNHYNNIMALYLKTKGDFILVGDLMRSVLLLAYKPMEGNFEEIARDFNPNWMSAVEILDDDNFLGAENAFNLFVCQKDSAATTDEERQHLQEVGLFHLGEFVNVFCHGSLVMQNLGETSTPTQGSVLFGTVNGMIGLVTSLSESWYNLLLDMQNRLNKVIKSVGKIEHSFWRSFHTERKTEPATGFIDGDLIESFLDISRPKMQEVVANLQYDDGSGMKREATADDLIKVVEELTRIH
Procedure, shortened: (§1)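 HEK293 clones carrying a CRISPR knock-in HiBiT tag on CSNK1A1 and stably expressing LgBiT are treated with compound for 24 hours at 37° C, 5% CO2, then read by luminescence. Response is normalized as 100*(S−N)/(P−N) against plate negative and positive controls, and DC50 values are derived.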

LS180 cell line = test: Growth inhibition, CyQUANT Direct Cell Proliferation Assay, LS180; assay type: cell-based; settings: Homo sapiens; LS180, 120 to 168 hours; read-out: LS180 GI50
Procedure, shortened: (§2)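 Cells seeded 300 to 1,800 per well, day-0 CyQUANT Direct read after overnight attachment; 9-point 3-fold dilutions from 30 μM top concentration, 120 to 168 h exposure, 0.3% DMSO control. Fluorescence Ex/Em 480/520 nm; growth inhibition normalised to day-0 and untreated day-N signals, GI50 at 50% of untreated control.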

[2] = Oral pharmacokinetics in male BALB/c mice; assay type: in vivo; settings: mouse, PO 10 mg/kg, plasma, mean ± SD
Experimental: Male BALB/c mice were administered a discrete, oral (PO) dose of Compound 288, Compound 335, Compound 102, or Compound 303 at 10 mg/kg; all mice were fasted except for mice that were dosed with Compound 288. Male BALB/c mice were fasted overnight and administered a cassette dose, PO dose of Compound 303 and other compounds at 5 mg/kg per compound.
Blood samples were collected serially from three animals/time-point following PO administration of the test compounds to the mice and placed in tubes containing K2EDTA. The blood samples were centrifuged, and the aliquots of the resulting plasma stored frozen at −60 to −90° C.
The plasma samples were analyzed by LC-MS/MS to determine concentrations of the test compounds. The in-life portion of the study and the bioanalysis of plasma samples was conducted at Wuxi (China).
The pharmacokinetic parameters for the tested compounds were calculated by non-compartmental analysis using Phoenix WinNonlin software.

LS174T cell line = test: Growth inhibition, CyQUANT Direct Cell Proliferation Assay, LS174T; assay type: cell-based; settings: Homo sapiens, 120 to 168 hours, read-out: LS174T GI50
Procedure, shortened: as §2

SKCO1 cell line = test: Growth inhibition, CyQUANT Direct Cell Proliferation Assay, SKCO1; assay type: cell-based; settings: Homo sapiens, SK-CO-1; SKCO1, 120 to 168 hours; read-out: SKCO1 GI50
Procedure, shortened: as §2

GP2D cell line = test: Growth inhibition, CyQUANT Direct Cell Proliferation Assay, GP2D; assay type: cell-based; settings: GP2D, 120 to 168 hours; read-out: GP2D GI50
Procedure, shortened: as §2

CK1α [3] = biological target: T2, CK1α (Homo sapiens, UniProt P48729); test: CK1α NanoBit Assay (HiBiT-tagged CSNK1A1, HEK293 clonal lines); assay type: cell-based; settings: HEK293 HiBiT-CSNK1A1/LgBiT cells, 24 h incubation
T2 construct: HEK293 clonal lines with CRISPR KI HiBiT tag on CSNK1A1
T2 sequence (P48729 whole entry): as the sequence (P48729 whole entry) above
T2 sequence (Q96SW2 whole entry, further chain): as the sequence (Q96SW2 whole entry) above
T2 sequence (Q16531 2-1140 partner limits assumed): as the sequence (Q16531 2-1140 partner limits assumed) above
Procedure, shortened: as §1

CW2 cell line = test: Growth inhibition, CyQUANT Direct Cell Proliferation Assay, CW2; assay type: cell-based; settings: Homo sapiens, CW-2; CW2, 120 to 168 hours; read-out: CW2 GI50
Procedure, shortened: as §2

CRBN/DDB1, sequence (Q96SW2 whole entry, species assumed): as the sequence (Q96SW2 whole entry) above
CRBN/DDB1, sequence (Q16531 whole entry partner, species assumed): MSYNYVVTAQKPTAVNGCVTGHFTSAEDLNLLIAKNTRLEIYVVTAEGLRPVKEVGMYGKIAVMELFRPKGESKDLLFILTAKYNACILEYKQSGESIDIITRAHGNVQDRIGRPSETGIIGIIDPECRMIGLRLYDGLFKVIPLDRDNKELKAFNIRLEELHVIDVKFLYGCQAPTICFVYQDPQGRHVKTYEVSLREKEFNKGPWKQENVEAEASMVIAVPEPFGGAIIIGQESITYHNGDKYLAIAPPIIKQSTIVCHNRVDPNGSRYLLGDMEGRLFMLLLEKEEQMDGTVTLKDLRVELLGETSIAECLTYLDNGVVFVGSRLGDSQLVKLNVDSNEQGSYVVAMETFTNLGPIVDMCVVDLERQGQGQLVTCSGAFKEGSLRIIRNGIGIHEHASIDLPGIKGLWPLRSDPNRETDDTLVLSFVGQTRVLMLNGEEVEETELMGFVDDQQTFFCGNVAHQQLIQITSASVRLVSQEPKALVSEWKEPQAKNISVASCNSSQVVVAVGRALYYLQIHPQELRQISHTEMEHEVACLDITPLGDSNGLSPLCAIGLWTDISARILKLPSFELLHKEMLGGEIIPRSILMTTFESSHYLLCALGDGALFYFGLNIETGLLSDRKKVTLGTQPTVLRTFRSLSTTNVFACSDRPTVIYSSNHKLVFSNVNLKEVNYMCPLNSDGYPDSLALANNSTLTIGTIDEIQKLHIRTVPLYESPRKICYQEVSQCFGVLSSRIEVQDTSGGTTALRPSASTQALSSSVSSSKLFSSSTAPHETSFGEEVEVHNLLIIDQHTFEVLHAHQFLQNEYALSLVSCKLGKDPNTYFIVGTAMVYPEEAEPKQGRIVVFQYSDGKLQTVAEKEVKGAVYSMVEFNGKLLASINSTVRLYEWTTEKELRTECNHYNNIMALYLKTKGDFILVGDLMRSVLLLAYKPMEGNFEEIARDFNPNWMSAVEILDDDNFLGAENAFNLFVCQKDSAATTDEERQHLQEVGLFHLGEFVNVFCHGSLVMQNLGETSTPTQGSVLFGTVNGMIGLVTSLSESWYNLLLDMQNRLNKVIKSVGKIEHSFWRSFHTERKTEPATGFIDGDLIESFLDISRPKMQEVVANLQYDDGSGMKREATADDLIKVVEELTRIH

SMILES	IC50 (CRBN/DDB1)	DC50 (CK1α [1])	GI50 (LS180 cell line)	AUC [2]	AUC(0-t) [2]	Cmax [2]	Tmax [2]	half-life [2]	GI50 (LS174T cell line)	GI50 (SKCO1 cell line)	GI50 (GP2D cell line)	IC50 (CRBN/DDB1; CRBN/DDB1 2.5 nM, Cy5-Thalidomide 100 nM, 30 min, geometric mean, read-out: HTRF_Thali_Disp_DR_geo_IC50)	DC50 (CK1α [3])	GI50 (CW2 cell line)
CC(C)(C)C1CN(C(=O)Nc2ccc3c(c2)CN(C2CCC(=O)NC2=O)C3=O)c2ccccc21 (centres unmarked) [Compound 187, 3-(tert-butyl)-N-(2-(2,6-dioxopiperidin-3-yl)-1-oxoisoindolin-5-yl)indoline-1-carboxamide]	100 to 1000 nM	< 0.1 µM												
COC[C@@H]1Cc2ccccc2N1C(=O)Nc1ccc2c(c1)CN(C1CCC(=O)NC1=O)C2=O (stereo partly drawn) [Compound 288, (2S)—N-(2-(2,6-dioxopiperidin-3-yl)-1-oxoisoindolin-5-yl)-2-(methoxymethyl)indoline-1-carboxamide]			100 to 1000 nM	29700 ± 2450 ng·h/mL	29600 ± 2460 ng·h/mL	6870 ± 761 ng/mL	0.83 ± 0.29 h	2.71 ± 0.49 h	100 to 1000 nM	< 100 nM	100 to 1000 nM	100 to 1000 nM	< 0.1 µM	< 100 nM
